Results taken from article PMC5218480 (PLoS ONE, 2017).

Test system: MV-4-11 cells
Experiment: Gene expression microarray analysis (Affymetrix PrimeView) and GSEA
Format: cell-based, human
Design: RFU PODN (11730768_x_at) / Fold change /veh PODN (11730768_x_at) / RFU LINC00158 (11744669_a_at) / Fold change /veh LINC00158 (11744669_a_at) / RFU DUSP10 (11751237_a_at) / Fold change /veh DUSP10 (11751237_a_at) / RFU ID3 (11757404_x_at) / Fold change /veh ID3 (11757404_x_at) / RFU PLEKHG5 (11737974_s_at) / Fold change /veh PLEKHG5 (11737974_s_at) / RFU LRRC4B (11730491_at) / Fold change /veh LRRC4B (11730491_at) / RFU GIMAP4 (11747438_a_at) / Fold change /veh GIMAP4 (11747438_a_at) / RFU KRT8 (11758183_x_at) / Fold change /veh KRT8 (11758183_x_at) / RFU CNN1 (11734310_a_at) / Fold change /veh CNN1 (11734310_a_at) / RFU VPS37D (11726825_at) / Fold change /veh VPS37D (11726825_at) / RFU C10orf10 (11716522_x_at) / Fold change /veh C10orf10 (11716522_x_at) / RFU KIR2DL2 /// KIR2DL4 /// KIR2DL5A /// KIR2DL5B /// KIR2DS1 /// KIR2DS2 /// KIR2DS3 /// KIR2DS4 /// KIR3DL3 /// KIR3DL3 /// KIR3DS1 (11738374_at) / Fold change /veh KIR2DL2 /// KIR2DL4 /// KIR2DL5A /// KIR2DL5B /// KIR2DS1 /// KIR2DS2 /// KIR2DS3 /// KIR2DS4 /// KIR3DL3 /// KIR3DL3 /// KIR3DS1 (11738374_at) / RFU C1QL1 (11718748_at) / Fold change /veh C1QL1 (11718748_at) / RFU TMPRSS4 (11747572_a_at) / Fold change /veh TMPRSS4 (11747572_a_at) / RFU HAMP (11756126_x_at) / Fold change /veh HAMP (11756126_x_at) / RFU RNFT2 (11725882_a_at) / Fold change /veh RNFT2 (11725882_a_at) / RFU NR4A2 (11747474_a_at) / Fold change /veh NR4A2 (11747474_a_at) / RFU ABCC12 (11746883_a_at) / Fold change /veh ABCC12 (11746883_a_at) / RFU TMEM136 (11760407_x_at) / Fold change /veh TMEM136 (11760407_x_at) / RFU CLDN22 /// WWC2 (11732394_at) / Fold change /veh CLDN22 /// WWC2 (11732394_at) / RFU HLA-DPB1 (11760878_x_at) / Fold change /veh HLA-DPB1 (11760878_x_at) / RFU SPINT1 (11716480_a_at) / Fold change /veh SPINT1 (11716480_a_at) / RFU GAP43 (11754022_s_at) / Fold change /veh GAP43 (11754022_s_at) / RFU A4GNT (11735810_at) / Fold change /veh A4GNT (11735810_at) / RFU PRB3 (11715151_x_at) / Fold change /veh PRB3 (11715151_x_at) / RFU TUBB4B (11761932_at) / Fold change /veh TUBB4B (11761932_at) / RFU CAPN14 (11732068_a_at) / Fold change /veh CAPN14 (11732068_a_at) / RFU TMCC2 (11721928_a_at) / Fold change /veh TMCC2 (11721928_a_at) / RFU IRGQ (11745062_a_at) / Fold change /veh IRGQ (11745062_a_at) / RFU FAM174B (11720279_a_at) / Fold change /veh FAM174B (11720279_a_at) / RFU TMPRSS4 (11748680_a_at) / Fold change /veh TMPRSS4 (11748680_a_at) / RFU FAM212B (11763350_a_at) / Fold change /veh FAM212B (11763350_a_at) / RFU PLEKHG5 (11743358_a_at) / Fold change /veh PLEKHG5 (11743358_a_at) / RFU ZSCAN30 (11745921_a_at) / Fold change /veh ZSCAN30 (11745921_a_at) / RFU CMKLR1 (11741424_a_at) / Fold change /veh CMKLR1 (11741424_a_at) / RFU LOC101060620 /// MAPK8IP1 (11723275_at) / Fold change /veh LOC101060620 /// MAPK8IP1 (11723275_at) / RFU SPTSSB (11747773_x_at) / Fold change /veh SPTSSB (11747773_x_at) / RFU PRSS12 (11739890_at) / Fold change /veh PRSS12 (11739890_at) / RFU BIN1 (11741810_x_at) / Fold change /veh BIN1 (11741810_x_at) / RFU WNT11 (11732464_a_at) / Fold change /veh WNT11 (11732464_a_at) / RFU C10orf10 (11716521_a_at) / Fold change /veh C10orf10 (11716521_a_at) / RFU C5orf56 (11738089_at) / Fold change /veh C5orf56 (11738089_at) / RFU CYB561 (11721691_x_at) / Fold change /veh CYB561 (11721691_x_at) / RFU ANKRD19P (11752326_a_at) / Fold change /veh ANKRD19P (11752326_a_at) / RFU OR2T12 /// OR2T33 /// OR2T8 (11738714_s_at) / Fold change /veh OR2T12 /// OR2T33 /// OR2T8 (11738714_s_at) / RFU VCAN (11748164_a_at) / Fold change /veh VCAN (11748164_a_at) / RFU JSRP1 (11732532_at) / Fold change /veh JSRP1 (11732532_at) / RFU KRTAP10-11 (11738290_x_at) / Fold change /veh KRTAP10-11 (11738290_x_at) / RFU MYO3A (11730013_a_at) / Fold change /veh MYO3A (11730013_a_at) / RFU EBF3 (11725865_a_at) / Fold change /veh EBF3 (11725865_a_at) / RFU CAMK2N1 (11719241_x_at) / Fold change /veh CAMK2N1 (11719241_x_at) / RFU C5orf56 (11738088_a_at) / Fold change /veh C5orf56 (11738088_a_at) / RFU OLFML3 (11715873_a_at) / Fold change /veh OLFML3 (11715873_a_at) / RFU LOC100653217 /// NTM (11731650_a_at) / Fold change /veh LOC100653217 /// NTM (11731650_a_at) / RFU MAPK11 (11762145_a_at) / Fold change /veh MAPK11 (11762145_a_at) / RFU FIZ1 (11724087_x_at) / Fold change /veh FIZ1 (11724087_x_at) / RFU OASL (11726364_x_at) / Fold change /veh OASL (11726364_x_at) / RFU SOX15 (11748057_x_at) / Fold change /veh SOX15 (11748057_x_at) / RFU CD79A (11719716_a_at) / Fold change /veh CD79A (11719716_a_at) / RFU HIST1H1D (11736915_at) / Fold change /veh HIST1H1D (11736915_at) / RFU CASKIN2 (11723855_a_at) / Fold change /veh CASKIN2 (11723855_a_at) / RFU LOC730098 (11760151_x_at) / Fold change /veh LOC730098 (11760151_x_at) / RFU OR4N2 (11742367_at) / Fold change /veh OR4N2 (11742367_at) / RFU PRRT2 (11749266_a_at) / Fold change /veh PRRT2 (11749266_a_at) / RFU SNX32 (11753110_a_at) / Fold change /veh SNX32 (11753110_a_at) / RFU CDHR5 (11726645_a_at) / Fold change /veh CDHR5 (11726645_a_at) / RFU RCAN1 (11760418_a_at) / Fold change /veh RCAN1 (11760418_a_at) / RFU FAM167A (11723789_a_at) / Fold change /veh FAM167A (11723789_a_at) / RFU FAM26E (11764081_at) / Fold change /veh FAM26E (11764081_at) / RFU ISYNA1 (11749810_s_at) / Fold change /veh ISYNA1 (11749810_s_at) / RFU ACY1 (11761880_at) / Fold change /veh ACY1 (11761880_at) / RFU 11764098_at / Fold change /veh 11764098_at / RFU SAMD14 (11745864_x_at) / Fold change /veh SAMD14 (11745864_x_at) / RFU NPB (11741838_a_at) / Fold change /veh NPB (11741838_a_at) / RFU TMPRSS6 (11731388_a_at) / Fold change /veh TMPRSS6 (11731388_a_at) / RFU KRTAP10-2 (11738614_at) / Fold change /veh KRTAP10-2 (11738614_at) / RFU ARHGAP8 /// PRR5-ARHGAP8 (11727945_x_at) / Fold change /veh ARHGAP8 /// PRR5-ARHGAP8 (11727945_x_at) / RFU KRTAP5-7 /// NADSYN1 (11734609_at) / Fold change /veh KRTAP5-7 /// NADSYN1 (11734609_at) / RFU RASL12 (11751679_a_at) / Fold change /veh RASL12 (11751679_a_at) / RFU CDKN2B (11736163_a_at) / Fold change /veh CDKN2B (11736163_a_at) / RFU PRF1 (11729649_at) / Fold change /veh PRF1 (11729649_at) / RFU, ZNF638 /// ZNF638-IT1 / Fold change vs veh, ZNF638 /// ZNF638-IT1 / RFU, PANK3 / Fold change vs veh, PANK3 / RFU, SH3YL1 / Fold change vs veh, SH3YL1 / RFU, ZEB2 / Fold change vs veh, ZEB2 / RFU, NRIP1 / Fold change vs veh, NRIP1 / RFU, PTTG1IP / Fold change vs veh, PTTG1IP / RFU, CAPN2 / Fold change vs veh, CAPN2 / RFU, MED14 / Fold change vs veh, MED14 / RFU, SNORA58 / Fold change vs veh, SNORA58 / RFU, C1orf63 / Fold change vs veh, C1orf63 / RFU, LRRFIP1 / Fold change vs veh, LRRFIP1 / RFU, NDUFAF7 / Fold change vs veh, NDUFAF7 / RFU, SLC12A2 / Fold change vs veh, SLC12A2 / RFU, IBTK / Fold change vs veh, IBTK / RFU, ESF1 / Fold change vs veh, ESF1 / Fold change vs veh, TMEM50B / RFU, TAOK1 / Fold change vs veh, TAOK1 / RFU, ACBD3 / Fold change vs veh, ACBD3 / RFU, TMA16 / Fold change vs veh, TMA16 / RFU, RWDD3 / Fold change vs veh, RWDD3 / RFU, BCAT1 / Fold change vs veh, BCAT1 / RFU, EDEM3 / Fold change vs veh, EDEM3 / RFU, TMEM33 / Fold change vs veh, TMEM33 / RFU, WDR75 / Fold change vs veh, WDR75 / RFU, AHCTF1 / Fold change vs veh, AHCTF1 / RFU, TFRC / Fold change vs veh, TFRC / RFU, ZDHHC17 / Fold change vs veh, ZDHHC17 / RFU, NOM1 / Fold change vs veh, NOM1 / RFU, ARL8B / Fold change vs veh, ARL8B / RFU, ZBTB11 / Fold change vs veh, ZBTB11 / RFU, TAMM41 / Fold change vs veh, TAMM41 / RFU, KIAA1704 /// LOC100996395 / Fold change vs veh, KIAA1704 /// LOC100996395 / RFU, ING1 / Fold change vs veh, ING1 / RFU, TRMT61B / Fold change vs veh, TRMT61B / RFU, FUBP3 / Fold change vs veh, FUBP3 / RFU, TP53 / Fold change vs veh, TP53 / RFU, TNKS2 / Fold change vs veh, TNKS2 / RFU, ZFP14 / Fold change vs veh, ZFP14 / RFU, ACTR2 / Fold change vs veh, ACTR2 / RFU, PPP3R1 / Fold change vs veh, PPP3R1 / RFU, PIK3R1 / Fold change vs veh, PIK3R1 / RFU, HNRNPA1 / Fold change vs veh, HNRNPA1 / RFU, RNF170 / Fold change vs veh, RNF170 / RFU, ZNF28 / Fold change vs veh, ZNF28 / RFU, RNGTT / Fold change vs veh, RNGTT / RFU, OGT / Fold change vs veh, OGT / RFU, BRD1 / Fold change vs veh, BRD1 / RFU, MARS / Fold change vs veh, MARS / RFU, ZNF655 / Fold change vs veh, ZNF655 / RFU, FAHD1 / Fold change vs veh, FAHD1 / RFU, BDP1 / Fold change vs veh, BDP1 / RFU, LRRCC1 / Fold change vs veh, LRRCC1 / RFU, ARID1A / Fold change vs veh, ARID1A / RFU, ZNF146 / Fold change vs veh, ZNF146 / RFU, ZNF330 / Fold change vs veh, ZNF330 / RFU, GPN3 / Fold change vs veh, GPN3 / RFU, C9orf123 / Fold change vs veh, C9orf123 / RFU, N4BP2L2 / Fold change vs veh, N4BP2L2 / RFU, ARFIP1 / Fold change vs veh, ARFIP1 / RFU, FAM179B / Fold change vs veh, FAM179B / RFU, BCL10 / Fold change vs veh, BCL10 / RFU, UHRF1BP1L / Fold change vs veh, UHRF1BP1L / RFU, BET1 / Fold change vs veh, BET1 / RFU, CNOT2 / Fold change vs veh, CNOT2 / RFU, ZNF268 / Fold change vs veh, ZNF268 / Fold change vs veh, ZNF507 / RFU, DGCR2 / Fold change vs veh, DGCR2 / RFU, WDSUB1 / Fold change vs veh, WDSUB1 / Fold change vs veh, HSP90B1 /// MIR3652 / RFU, ADSS / Fold change vs veh, ADSS / RFU, GK / Fold change vs veh, GK / RFU, ZNF148 / Fold change vs veh, ZNF148 / RFU, TAF9 / Fold change vs veh, TAF9 / RFU, SLC1A5 / Fold change vs veh, SLC1A5 / RFU, SLMO2 / Fold change vs veh, SLMO2 / RFU, ABCC4 / Fold change vs veh, ABCC4 / RFU, LOC101060439 /// RAP1B / Fold change vs veh, LOC101060439 /// RAP1B / RFU, RFX7 / Fold change vs veh, RFX7 / RFU, GTPBP10 / Fold change vs veh, GTPBP10 / RFU, CNEP1R1 / Fold change vs veh, CNEP1R1 / RFU, BIVM-ERCC5 /// ERCC5 / Fold change vs veh, BIVM-ERCC5 /// ERCC5 / RFU, ILF3 / Fold change vs veh, ILF3 / RFU 11762660_at / Fold change /veh 11762660_at / RFU VCAN (11757783_s_at) / Fold change /veh VCAN (11757783_s_at) / RFU DDX43 (11728927_at) / Fold change /veh DDX43 (11728927_at) / RFU KRT8 (11758188_x_at) / Fold change /veh KRT8 (11758188_x_at) / RFU NKD1 (11759106_at) / Fold change /veh NKD1 (11759106_at) / RFU SRD5A1 (11742802_a_at) / Fold change /veh SRD5A1 (11742802_a_at) / RFU TPSAB1 /// TPSB2 (11721975_s_at) / Fold change /veh TPSAB1 /// TPSB2 (11721975_s_at) / RFU GSTM3 (11746129_a_at) / Fold change /veh GSTM3 (11746129_a_at) / RFU IL23R (11737362_x_at) / Fold change /veh IL23R (11737362_x_at) / RFU TMEM51 (11727254_a_at) / Fold change /veh TMEM51 (11727254_a_at) / RFU PIWIL2 (11732686_x_at) / Fold change /veh PIWIL2 (11732686_x_at) / RFU ORM1 (11744905_x_at) / Fold change /veh ORM1 (11744905_x_at) / RFU CCDC152 (11743942_at) / Fold change /veh CCDC152 (11743942_at) / RFU ECM1 (11717891_a_at) / Fold change /veh ECM1 (11717891_a_at) / RFU IL23R (11748794_a_at) / Fold change /veh IL23R (11748794_a_at) / RFU TNFAIP8L3 (11732012_x_at) / Fold change /veh TNFAIP8L3 (11732012_x_at) / RFU MBOAT4 (11741988_at) / Fold change /veh MBOAT4 (11741988_at) / RFU 11764193_at / Fold change /veh 11764193_at / RFU TMEM53 (11763286_at) / Fold change /veh TMEM53 (11763286_at) / RFU MAGEB2 (11727129_at) / Fold change /veh MAGEB2 (11727129_at) / RFU TMEM200A (11744735_a_at) / Fold change /veh TMEM200A (11744735_a_at) / RFU CCDC152 (11751479_a_at) / Fold change /veh CCDC152 (11751479_a_at) / RFU FAM211A (11726209_a_at) / Fold change /veh FAM211A (11726209_a_at) / RFU RGS16 (11746705_a_at) / Fold change /veh RGS16 (11746705_a_at) / RFU VCAN (11755009_s_at) / Fold change /veh VCAN (11755009_s_at) / RFU RHOB (11743442_s_at) / Fold change /veh RHOB (11743442_s_at) / RFU RGS16 (11720943_a_at) / Fold change /veh RGS16 (11720943_a_at) / RFU RGS16 (11720944_at) / Fold change /veh RGS16 (11720944_at) / RFU, VPS4B / Fold change vs veh, VPS4B / RFU, CREB1 / Fold change vs veh, CREB1 / RFU, DNAJC13 / Fold change vs veh, DNAJC13 / RFU, GNAQ / Fold change vs veh, GNAQ / RFU, CDK5R1 / Fold change vs veh, CDK5R1 / RFU, ZRANB3 / Fold change vs veh, ZRANB3 / RFU, CUL4A / Fold change vs veh, CUL4A / RFU, CCNY / Fold change vs veh, CCNY / RFU, UFL1 / Fold change vs veh, UFL1 / RFU, COG3 / Fold change vs veh, COG3 / RFU, DIAPH2 / Fold change vs veh, DIAPH2 / RFU, SKA2 / Fold change vs veh, SKA2 / RFU, AFF3 / Fold change vs veh, AFF3 / RFU, LMF1 / Fold change vs veh, LMF1 / RFU, IPO11 / Fold change vs veh, IPO11 / RFU, DFFB / Fold change vs veh, DFFB / RFU, FOXP1 / Fold change vs veh, FOXP1 / RFU, CARD8 / Fold change vs veh, CARD8 / RFU, STRN3 / Fold change vs veh, STRN3 / RFU, ADK / Fold change vs veh, ADK / RFU, RASSF2 / Fold change vs veh, RASSF2 / RFU, WIPF1 / Fold change vs veh, WIPF1 / RFU, LARP1B / Fold change vs veh, LARP1B / RFU, RASA1 / Fold change vs veh, RASA1 / RFU, RB1 / Fold change vs veh, RB1 / RFU, PPFIA1 / Fold change vs veh, PPFIA1 / RFU, MAT2A / Fold change vs veh, MAT2A / RFU, CCT5 / Fold change vs veh, CCT5 / RFU, WDR92 / Fold change vs veh, WDR92 / RFU, CUX1 / Fold change vs veh, CUX1 / RFU, TTC7A / Fold change vs veh, TTC7A / RFU, TMEM135 / Fold change vs veh, TMEM135 / RFU, DEPTOR / Fold change vs veh, DEPTOR / RFU, CPM / Fold change vs veh, CPM / RFU, DNAJB6 / Fold change vs veh, DNAJB6 / RFU, CACNA2D3 / Fold change vs veh, CACNA2D3 / RFU, DTX4 / Fold change vs veh, DTX4 / RFU, TFCP2 / Fold change vs veh, TFCP2 / RFU, GMCL1 /// GMCL1P1 / Fold change vs veh, GMCL1 /// GMCL1P1 / RFU, AEBP2 / Fold change vs veh, AEBP2 / RFU, SNHG1 /// SNORD22 /// SNORD25 /// SNORD26 /// SNORD27 /// SNORD28 /// SNORD29 /// SNORD31 / Fold change vs veh, SNHG1 /// SNORD22 /// SNORD25 /// SNORD26 /// SNORD27 /// SNORD28 /// SNORD29 /// SNORD31 / Fold change (Aza/veh), C12orf56 (ProbeSet 11735607_a_at) / Fold change (ACY-1035/veh), C12orf56 (ProbeSet 11735607_a_at) / Fold change (Aza/veh), FGFR1OP (ProbeSet 11751329_s_at) / Fold change (ACY-1035/veh), FGFR1OP (ProbeSet 11751329_s_at) / Fold change (Aza/veh), VPS36 (ProbeSet 11739960_a_at) / Fold change (ACY-1035/veh), VPS36 (ProbeSet 11739960_a_at) / RFU SYPL1 (11715823_x_at) / Fold change /veh SYPL1 (11715823_x_at) / RFU IGFBP7 (11715501_s_at) / Fold change /veh IGFBP7 (11715501_s_at) / RFU REEP3 (11722064_at) / Fold change /veh REEP3 (11722064_at) / RFU IGLL1 (11728026_x_at) / Fold change /veh IGLL1 (11728026_x_at): dose or concentration left out as unconfirmed
Conditions: MV-4-11 cells, 48 hours

Nc1ccc(-c2cccs2)cc1NC(=O)c1ccc2c(c1)cc(C1CC1)n2CCN1CCOCC1 [ACY-1035] was tested, and the “Fold change /veh IGFBP7 (11715501_s_at)” value was 0.33.
